The results in this text go back to patent US12187716B2, “TYK2 kinase inhibitors” (SAREUM LIMITED, priority 2018, dated 2025).

SMILES strings stand for the structures. pIC50: −log10 of the molar value. Where two headings read alike, the source gives them in different places.

For data set [1], the target named is T1, CYP2C8 (Homo sapiens, UniProt P10632).
T1 construct: from tissue; host or cells: pooled human liver microsomes
T1 sequence (P10632 1-490): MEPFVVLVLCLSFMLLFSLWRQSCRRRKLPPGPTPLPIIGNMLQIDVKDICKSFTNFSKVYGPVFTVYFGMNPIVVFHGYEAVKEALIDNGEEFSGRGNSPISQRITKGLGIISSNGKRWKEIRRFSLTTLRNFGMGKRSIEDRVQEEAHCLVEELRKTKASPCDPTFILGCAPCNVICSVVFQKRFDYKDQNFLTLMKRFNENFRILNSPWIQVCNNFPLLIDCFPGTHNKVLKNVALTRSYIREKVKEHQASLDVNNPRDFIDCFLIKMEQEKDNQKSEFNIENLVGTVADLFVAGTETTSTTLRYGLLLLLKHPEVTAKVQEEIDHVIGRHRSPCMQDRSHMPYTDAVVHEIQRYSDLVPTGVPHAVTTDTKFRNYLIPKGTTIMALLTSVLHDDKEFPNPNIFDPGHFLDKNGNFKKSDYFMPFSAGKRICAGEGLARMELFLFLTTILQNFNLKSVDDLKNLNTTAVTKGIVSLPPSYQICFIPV
Kind of data set: Cytochrome P450 inhibition assay, CYP2C8. In kind it is in vitro ADME. The settings on record: pooled human liver microsomes, probe Amodiaquine. The protocol:
(§1) The susceptibility of Compounds (2) and (3) to potential drug-drug interactions was tested by assaying their abilities to inhibit various cytochrome P450 isoforms. Prior art Compound B (see Example 3 above) was also tested as a comparative example. Test compounds, prepared and serially diluted in DMSO, were incubated at six concentrations (1% DMSO final) with pooled human liver microsomes in the presence of probe substrate for each isoform, and their effects on the metabolism of probe substrates determined. Incubations (in 96-well plates) were carried out at 37° C. in 0.1 M Tris buffer, pH 7.4, with reactions initiated by the addition of cofactor, NADPH (1 mM final concentration). At the specified times, reactions were terminated with acetonitrile containing an analytical internal standard, samples were centrifuged and the supernatant fractions were analysed for probe substrate metabolites by mass spectrometry (LC-MS/MS). The instrument responses were normalised to internal standard and compared to the appropriate solvent controls to determine the amount of metabolite formed from the probe substrates relative to these “uninhibited” controls. […] [table]
Background: Liver microsomes are a subcellular fraction often used to study metabolism.

The target of data set [2] is T2, CYP3A4 (Homo sapiens, UniProt P08684).
T2 construct: from tissue; host or cells: pooled human liver microsomes
T2 sequence (P08684 whole entry): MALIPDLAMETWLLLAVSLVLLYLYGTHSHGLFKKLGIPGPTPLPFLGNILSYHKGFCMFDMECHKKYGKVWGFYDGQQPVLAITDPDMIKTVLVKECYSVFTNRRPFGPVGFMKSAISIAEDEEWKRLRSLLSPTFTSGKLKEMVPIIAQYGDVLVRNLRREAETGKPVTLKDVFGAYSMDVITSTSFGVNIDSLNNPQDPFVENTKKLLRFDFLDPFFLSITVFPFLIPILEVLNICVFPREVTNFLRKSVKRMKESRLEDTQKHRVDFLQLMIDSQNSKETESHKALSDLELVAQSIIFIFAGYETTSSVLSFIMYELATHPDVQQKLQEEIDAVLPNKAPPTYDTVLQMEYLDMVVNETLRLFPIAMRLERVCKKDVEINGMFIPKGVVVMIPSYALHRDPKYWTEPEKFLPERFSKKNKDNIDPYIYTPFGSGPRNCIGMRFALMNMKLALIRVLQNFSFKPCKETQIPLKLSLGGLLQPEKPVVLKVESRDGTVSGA
As to the kind of experiment: Cytochrome P450 inhibition assay, CYP3A4. The note with it: pooled human liver microsomes. In kind it is in vitro ADME. On the procedure: as §1

Data set [3] has as its target T3, hERG potassium channel (Homo sapiens, UniProt Q12809).
T3 construct: expressed in transfected cells; host or cells: hERG-HEK stably transfected cell line
As to the kind of experiment: hERG channel inhibition assay (hERG-HEK cells, Sophion Qube). The format is cell-based. The note with it: for pIC50: hERG-HEK cells, tail current, room temperature; for inhibition at 30 uM: human, hERG-HEK stably transfected cell line, Max Conc. 30 uM. The protocol: The potential for compounds to inhibit the hERG potassium channel was determined using a hERG-HEK stably transfected cell line on the Sophion Qube automated electrophysiology platform. The assay was performed at room temperature and recordings of the hERG tail current from individual cells was made using single-hole QChips.
The potency (IC50) of test compounds to inhibit the hERG channel was determined from a concentration-response curve generated from 8 test compound concentrations with up to 4 replicates per concentration.
The compound concentration was added to the test well twice to ensure complete exchange of the external buffer with the test compound. In total, compound was applied to the well for >7 minutes.
For orientation: The hERG channel carries a current that helps repolarise heart muscle cells.

Data set [4] in a line: Hepatocyte stability assay, rat. The format is in vitro ADME. The settings on record: male, Sprague-Dawley, pooled hepatocytes, 37° C. On the procedure:
(§2) Test and control compounds were incubated with hepatocytes at 37° C. Aliquots were removed at 6 timepoints over a one hour period. Samples were centrifuged and the supernatant fractions analysed for parent compound by mass spectrometry (LC-MS/MS).
(§3) The amount of compound remaining (expressed as %) was determined from the MS response in each sample relative to that in the T=0 samples, and used to determine the half-life and intrinsic clearance of the compound.

Data set [5] can be described thus: Hepatocyte stability assay, dog. The format is in vitro ADME. The note with it: male, Beagle, pooled hepatocytes, 37° C. On the procedure:
as §2, §3

Data set [6] concerns pSTAT3 in HT29 cells. Kind of data set: pSTAT3 inhibition in response to IL-22 stimulation in serum starved HT29 cells. The format is cell-based. The settings on record: for inhibition at 10 µM: HT-29, HT29 cells, 10 ng/ml human IL-22, 10 μM compound; for pIC50: Homo sapiens, HT-29, HT29 cells, 10 ng/ml human IL-22. The protocol: HT29 cells were serum starved overnight before the four test compounds were diluted to generate a 9-point semi-log dose dilution with a top concentration of 10 μM, plus vehicle control. HT29 cells were incubated with the test compounds for 20 min at 37° C. HT29 cells were incubated for a further 15 min with 10 ng/ml human IL-22 before cells were fixed with 4% PFA for 10 min, and 90% methanol for 30 min before being labelled with a phospho-STAT3Y705 antibody (CST #9145). Cells were rinsed three times using 0.5% BSA/PBS solution before being incubated with Alexa-488 anti-rabbit secondary antibodies.
Mean fluorescence intensity of phospho-STAT3 in single cells was analysed by flow cytometry using an Intellicyt iQue instrument and FlowJo software. The IC50 was determined using a four-parameter analysis following removal of background signal and normalisation to the DMSO control.

Data set [7] has as its system STAT3 phosphorylation in Th17 cells. As to the kind of experiment: Inhibition of STAT3 phosphorylation in Th17 cells derived from human peripheral blood CD4CD45RO+ cells. In kind it is cell-based. On the procedure:
Fresh human Peripheral blood CD4CD45RO+ cells were purchased commercially (Generon, UK); 3 separate vials from 3 different volunteers for experimental replicates. Cells were grown in T-cell medium (Thermo Fisher) containing 10 ng/ml recombinant human IL-1B (R&D Systems), IL-23 (R&D Systems), TGF-B1 (R&D Systems) and 50 ng/ml IL-6 (R&D Systems) together with anti-CD3/CD28 magnetic Dynabeads (Thermo Fisher). These were grown for 11 days to induce expansion of Th17 cells. Prior to plating for assays cells were grown overnight in T-cell medium supplemented with human serum (1%) overnight. Media was removed and replaced with unsupplemented RPMI for 4 h prior to assay.
To measure pSTAT3 levels, 200,000 cells were plated into a 96 well plate and preincubated with compounds for 30 minutes followed by stimulation with recombinant IL-23 at 12.5 ng/ml for 15 minutes then lysed using cell lysis buffer. pSTAT3 levels in the lysates were measured using a commercially available ELISA kit (Thermo Fisher; 85-86102-11).
ELISAs were carried out according to manufacturers instructions and absorbance read using a microplate reader (Thermo Fisher; Varioskan). Data was normalised to the response in untreated samples using the formula: % of control=((Stimulated sample Conc.−unstimulated sample Conc.)×100)/(Control stimulated Conc.−control unstimulated Conc.)
Graphpad Prism 8.1.0 was used to calculate I050 values using a Nonlinear 4 parameter logistic regression model (4PL).

Data set [8] has as its target JAK2 (Homo sapiens, UniProt O60674). As to the kind of experiment: JAK2 kinase inhibition assay (33P-ATP filter binding, Reaction Biology). The note with it: for selectivity for TYK2 compared to JAK2: biochemical assays; for Selectivity v TYK2: JAK2: ratio of JAK2 IC50 to TYK2 IC50.
Setting [9] is: probe Midazolam, read-out: CYP3A4 (MID) IC50.
Where [10] appears, read: probe Testosterone, read-out: CYP3A4 (Test) IC50.
The mark [11] stands for this setting: 0.25 h, IL-23 12.5 ng/ml, 15 minutes, Donor 1, read-out: Inhibition of STAT3 phosphorylation IC50, Donor 1.
The mark [12] stands for this setting: 0.25 h, IL-23 12.5 ng/ml, 15 minutes, Donor 2, read-out: Inhibition of STAT3 phosphorylation IC50, Donor 2.
[13] abbreviates: 0.25 h, IL-23 12.5 ng/ml, 15 minutes, Donor 3, read-out: Inhibition of STAT3 phosphorylation IC50, Donor 3.
[14] abbreviates: average of 3 donors, read-out: Inhibition of STAT3 phosphorylation IC50, Average.

T3 sequence (Q12809 whole entry): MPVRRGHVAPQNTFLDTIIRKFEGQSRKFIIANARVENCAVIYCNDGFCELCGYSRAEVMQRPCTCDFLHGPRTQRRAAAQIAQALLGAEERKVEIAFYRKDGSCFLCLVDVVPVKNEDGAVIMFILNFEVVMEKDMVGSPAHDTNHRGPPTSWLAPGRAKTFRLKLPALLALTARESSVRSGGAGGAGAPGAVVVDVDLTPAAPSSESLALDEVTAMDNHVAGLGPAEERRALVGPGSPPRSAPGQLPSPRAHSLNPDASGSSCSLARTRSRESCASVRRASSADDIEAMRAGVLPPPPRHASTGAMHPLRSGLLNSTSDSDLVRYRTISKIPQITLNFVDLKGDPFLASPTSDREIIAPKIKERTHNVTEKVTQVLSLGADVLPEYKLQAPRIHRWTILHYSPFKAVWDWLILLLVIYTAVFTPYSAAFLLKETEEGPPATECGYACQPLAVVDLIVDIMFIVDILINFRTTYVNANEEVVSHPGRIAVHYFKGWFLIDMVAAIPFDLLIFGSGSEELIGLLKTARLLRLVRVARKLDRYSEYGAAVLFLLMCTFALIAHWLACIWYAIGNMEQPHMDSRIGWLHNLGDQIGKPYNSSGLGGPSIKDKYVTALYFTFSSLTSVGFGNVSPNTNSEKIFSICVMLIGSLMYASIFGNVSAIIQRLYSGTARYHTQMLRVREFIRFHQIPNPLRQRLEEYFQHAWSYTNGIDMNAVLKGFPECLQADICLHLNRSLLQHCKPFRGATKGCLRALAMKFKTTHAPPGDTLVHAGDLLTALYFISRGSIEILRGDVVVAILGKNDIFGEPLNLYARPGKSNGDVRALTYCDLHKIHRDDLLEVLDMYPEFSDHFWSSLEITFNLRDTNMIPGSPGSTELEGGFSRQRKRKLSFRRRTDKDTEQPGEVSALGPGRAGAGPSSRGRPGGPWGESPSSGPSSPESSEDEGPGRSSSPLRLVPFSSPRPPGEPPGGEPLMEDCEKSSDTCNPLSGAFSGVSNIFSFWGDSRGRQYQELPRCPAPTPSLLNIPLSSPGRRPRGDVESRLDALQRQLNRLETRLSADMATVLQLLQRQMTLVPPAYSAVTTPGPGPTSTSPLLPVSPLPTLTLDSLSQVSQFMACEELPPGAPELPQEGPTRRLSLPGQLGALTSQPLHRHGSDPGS
Sequence of JAK2 (O60674 809-1132): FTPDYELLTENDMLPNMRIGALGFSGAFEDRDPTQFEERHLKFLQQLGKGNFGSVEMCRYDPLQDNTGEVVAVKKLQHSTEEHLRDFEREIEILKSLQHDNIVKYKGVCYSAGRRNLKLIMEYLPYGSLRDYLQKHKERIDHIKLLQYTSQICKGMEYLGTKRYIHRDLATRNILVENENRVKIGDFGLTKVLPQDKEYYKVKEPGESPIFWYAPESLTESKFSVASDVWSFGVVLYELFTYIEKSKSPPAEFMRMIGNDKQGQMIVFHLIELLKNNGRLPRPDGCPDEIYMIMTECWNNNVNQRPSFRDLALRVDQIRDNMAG

Regarding `NC(=O)c1nc(-c2c(Cl)cccc2Cl)oc1Nc1ccc(C(=O)N2CCOCC2)cc1` [Comparative Compound B, 2-(2,6-dichloro-phenyl)-5-[4-(morpholine-4-carbonyl)-phenylamino]-oxazole-4-carboxylic acid amide, reference compound], the negative-log IC50 (pIC50) (usually −log10 of the IC50, conventionally taken in molar units) in data set [1] is < 5.09; in data set [2] (setting [9]), < 4.52; in data set [2] (setting [10]), < 4.52; in data set [3], ~4.52; in data set [6], > 7.00; in data set [7] (setting [11]), 6.95. The negative-log IC50 (pIC50) in data set [7] (setting [12]) was 7.77; in data set [7] (setting [13]), 7.27; in data set [7] (setting [14]) it was 7.21. For the same compound, the inhibition – broadly, the drop in the measured response relative to a control, in per cent – at 30 uM in data set [3] came out at 50.5%. For the same compound, the hepatocyte CLint – broadly, the capacity of the preparation to metabolise the compound, expressed as a volume cleared per time – in data set [4] came out at 104 µL/min/1e6 cells; in data set [5], 29.8 µL/min/1e6 cells. The inhibition at 10 µM in data set [6] turned out to be 97.9%.
Turning to `NC(=O)c1nc(-c2c(Cl)cccc2Cl)oc1Nc1ccc(C(=O)N2CCS(=O)(=O)CC2)cc1` [Compound (2)], the negative-log IC50 (pIC50) in data set [1] was < 4.52; in data set [2] (setting [9]) it was < 4.52; in data set [2] (setting [10]), < 4.52; in data set [3], < 4.52; in data set [7] (setting [11]), 7.16; in data set [7] (setting [12]), 7.54. In addition, the pIC50 is 7.26 in data set [7] (setting [13]), 7.29 in data set [7] (setting [14]) and 7.30 in data set [8]. In addition, the inhibition at 30 uM in data set [3] stood at 38.6%. The compound also yielded a hepatocyte CLint in data set [4] of 50 µL/min/1e6 cells. Besides, the inhibition at 10 µM in data set [6] is 95.9%. Moreover, the “selectivity for TYK2 compared to JAK2” value in data set [8] was “approximately 25 fold”. Moreover, in data set [8], the “Selectivity v TYK2: JAK2” value stood at 26.3.
With `NC(=O)c1nc(-c2c(Cl)cccc2Cl)oc1Nc1ccc(C(=O)N2CCS(=O)(=O)CC2)c(F)c1` [Compound (3)], the pIC50 is < 4.52 in data set [1]; < 4.52 in data set [2] (setting [9]); < 4.52 in data set [2] (setting [10]); < 4.52 in data set [3]; 6.64 in data set [6]; 6.80 in data set [7] (setting [11]). Besides, the pIC50 in data set [7] (setting [12]) was 7.54; in data set [7] (setting [13]), 7.04; in data set [7] (setting [14]), 7.04; in data set [8], 6.82. In addition, in data set [3], the inhibition at 30 uM came to 31.5%. Further, the figures for the intrinsic metabolic clearance (hepatocyte CLint) in data set [4] and in data set [5] were 53.8 µL/min/1e6 cells and 8.8 µL/min/1e6 cells, respectively. Further, the figures for the half-life in data set [4] (read-out: Rat T1/2) and in data set [5] (read-out: Dog T1/2) were 0.475 h and 3.08 h, respectively. At 10 µM the inhibition in data set [6] was 95.9%. Moreover, the “selectivity for TYK2 compared to JAK2” value in data set [8] is “approximately 32 fold”. For the same compound, the “Selectivity v TYK2: JAK2” value in data set [8] is 32.5.
